The test system of assay [1] is FL-p53 binding to nspDNA (random sequence). Description: Fluorescence anisotropy titration of FL-p53 against nspDNA in the presence of peptide. It counts as biochemical, human. From the text: (§1) We prepared FL-p53, TetCT mutant, and CoreTet mutant as described previously. For FL-p53, the thermostable and cysteine-modified mutant of human p53 (C124A, C135V, C141V, W146Y, C182S, V203A, R209P, C229Y, H233Y, Y234F, N235K, Y236F, T253V, N268D, C275A, C277A, K292C) was used[11]. The TetCT mutant corresponds to residues 293−393 of human p53 with an additional N-terminal cysteine. The CoreTet mutant corresponds to residues 1–363 of FL-p53[12]. Expression and purification of the three mutants was conducted as previously described[11],[12]. Briefly, all mutants with a GST tag were expressed in Escherichia coli and were collected from a GST column after cleavage of the GST tag and further purified by using a heparin column. The DNA binding ability of all mutants was confirmed by titration experiments as described elsewhere[10]–[12]. […]
(§2) The fluorescence anisotropy of fluorescent CT peptide or DNA was measured at 25 °C using a fluorescence spectrometer (FP-6500, JASCO Co., Tokyo, Japan) with an automatic titrator and home-build autorotating polarizer. […] For p53 mutants, the concentration was calculated for the tetramer.
(In general: In fluorescence polarisation assays a small probe gives low polarisation when free and higher when bound to something large.)

Assay [2] relates to TetCT mutant of p53 binding to nspDNA (random sequence). Description: Fluorescence anisotropy titration of TetCT mutant against nspDNA in the presence of DP6. The settings on record: at more than 150 μM DP6; 100 mM KCl. Type of assay: biochemical, human. The procedure: (§3) The solution used here included 100 mM KCl to mimic physiological conditions.
as §1, §2

Assay [3] deals with T1, FL-p53 labeled with Atto532 sliding along nspDNA (λDNA array) (Homo sapiens, UniProt P04637, C124A/C135V/C141V/C182S/C229Y/C275A/C277A/H233Y/K292C/N235K/N268D/R209P/T253V/V203A/W146Y/Y234F/Y236F).
T1 construct: we prepared three p53 constructs: full-length p53 (FL-p53); GST (cleaved yes); made in house; host or cells: Escherichia coli
Description: Single-molecule fluorescence measurement of 1D sliding of FL-p53 along DNA (DNA garden). The settings on record: displacement analysis, time interval 165 ms; for Fraction of fast sliding mode of FL-p53: 100 mM KCl, 2 mM MgCl2, pH 7.9. It counts as biochemical.
Description: The 1D sliding of FL-p53 labeled with Atto532 along DNA was measured by a custom-built TIRF microscope, as described previously[11],[39]. The λDNA array tethered on the coverslip of the flow cell was constructed using microcontact printing as described previously[39]. FL-p53 was labeled with Atto532 as described elsewhere[11]. FL-p53 with Atto532 at 2–4 nM was introduced into the flow cell with the DNA array by a syringe pump and measured at a flow rate of 500 μL/min, corresponding to 90% extension of λDNA. […] The experiments were conducted immediately after the dilution of FL-p53 from the stock solution at more than 10 μM and finished within 50 min to prevent the dissociation of the tetramer[40]. The analysis was described previously[11]. For distribution analysis, the following fitting equation was used:3 P(δx)=∑i=12Ai/4πDiδtexp(−(δx+viδt)^2/4Diδt), where P(δx), δt, δx, Ai, vi, and Di are the occurrence of δx, time interval, displacement in the time interval, amplitude of the ith mode, drift velocity of the ith mode, and diffusion coefficient of the ith mode, respectively.

The subject of assay [4] is CoreTet mutant of p53 binding to spDNA (p21). Description: Fluorescence anisotropy titration of CoreTet mutant against spDNA in the presence of DP6. The settings on record: 600 μM DP6. It counts as biochemical, human. How it is done:
as §3, §1, §2

Assay [5] relates to FL-p53 binding to spDNA (p21). Description: Fluorescence anisotropy titration of FL-p53 against spDNA in the presence of peptide. Type of assay: biochemical, human. The settings on record: saturated at 300 μM DP6.
Excerpt: as §1, §2

Assay [6] addresses T2, CT peptide (residues 367–393 of human p53) (Homo sapiens, UniProt P04637).
T2 construct: CT peptide (residues 367–393 of human p53) labeled with FAM at the N-terminus; purchased Toray Research Center Inc., Tokyo, Japan; host or cells: chemical synthesis
Description: Fluorescence anisotropy titration of peptides against FAM-labeled CT peptide of p53. Conditions: absence of salt; versus Wmot2, Cul7, WS100B peptides. It counts as binding.
Description: To test how well our method worked, we titrated the designed peptides against the CT peptide (residues 367–393) labeled with a fluorescent dye, FAM, using a fluorometer with fluorescence anisotropy[11]
The fluorescence anisotropy of fluorescent CT peptide or DNA was measured at 25 °C using a fluorescence spectrometer (FP-6500, JASCO Co., Tokyo, Japan) with an automatic titrator and home-build autorotating polarizer[11]. […] The titration curves were fitted by the following equations:1 robs=rA(cA−cAB)/cA+rABcAB/cA, 2 cAB=(cA+cB+KD)−(cA+cB+KD)^2−4cAcB/2, where robs, rA, rAB, KD, cA, and cB are the observed anisotropy, anisotropy of free molecule A, anisotropy of the complex between molecules A and B, dissociation constant, total concentration of molecule A and total concentration of molecule B, respectively. For p53 mutants, the concentration was calculated for the tetramer.

Peptide text beside a SMILES is read from it.

Take `NC(=O)C[C@H](NC(=O)[C@H](CC(N)=O)NC(=O)[C@H](CC(=O)O)NC(=O)[C@H](CCC(=O)O)NC(=O)[C@H](CCC(=O)O)NC(=O)[C@H](CCC(=O)O)NC(=O)[C@@H](N)CCC(=O)O)C(=O)N[C@@H](CC(=O)O)C(=O)N[C@@H](CC(=O)O)C(=O)N[C@@H](CC(=O)O)C(=O)N[C@@H](CCC(=O)O)C(=O)N[C@@H](CCC(=O)O)C(=O)N[C@@H](CCC(=O)O)C(=O)O` [DP5] (H-EEEEDNNDDDEEE-OH): the “effect on the affinity of FL-p53 for DNA” value in assay [1] (DP5, nspDNA and spDNA (Fig. S7, Table S2)) was “did not affect the affinity of FL-p53”.
For `NC(=O)C[C@H](NC(=O)[C@H](CC(N)=O)NC(=O)[C@H](CC(=O)O)NC(=O)[C@H](CCC(=O)O)NC(=O)[C@H](CCC(=O)O)NC(=O)[C@H](CCC(=O)O)NC(=O)[C@H](CCC(=O)O)NC(=O)[C@@H](N)CCC(=O)O)C(=O)N[C@@H](CC(=O)O)C(=O)N[C@@H](CC(=O)O)C(=O)N[C@@H](CC(=O)O)C(=O)N[C@@H](CCC(=O)O)C(=O)N[C@@H](CCC(=O)O)C(=O)N[C@@H](CCC(=O)O)C(=O)N[C@@H](Cc1c[nH]c2ccccc12)C(=O)N[C@@H](Cc1ccccc1)C(=O)O` [DP6], the “anisotropy change for nspDNA on titration of TetCT mutant” value in assay [2] is recorded as “no significant change in anisotropy”. The “increase of the KD of FL-p53 for nspDNA” value in assay [1] (at 600 μM than at 0 μM DP6) worked out at 7 fold. In addition, in assay [3] ([DP6] 300), the “Fraction of slow sliding mode of FL-p53” value came to 54 ± 1% and the “Fraction of fast sliding mode of FL-p53” value is recorded as 46 ± 2%. In assay [3] ([DP6] 600), the “Fraction of slow sliding mode of FL-p53” value is listed as 31 ± 2% and the “Fraction of fast sliding mode of FL-p53” value is on record as 69 ± 1%. The “effect on binding of the CoreTet mutant to spDNA” value in assay [4] is listed as “did not weaken the binding”. For the same compound, the “increase of the KD of FL-p53 for spDNA” value in assay [5] amounted to 3 fold. For the same compound, the “KD of DP6 with respect to the CT domain, times stronger than the KD of the natural peptides” value in assay [6] is recorded as “at least 12 times”.

The values are drawn from PMC6599006, “Rational design using sequence information only produces a peptide that binds to the intrinsically disordered region of p53” (Scientific Reports, 2019).
